In the supplement of paper PMC8671470:

Experiments:
Settings in all cases: 72 h
[1] = tested on: BV-173
Summary of the method: (§1)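 The IC50 was read from log-logistic dose–response fits. Fifteen myeloid leukaemia lines were exposed for 72 h at 37 °C with 5% CO2 to five tenfold doses from 1 to 10,000 nM in duplicate. ATP luminescence, normalised to vehicle and to a 10 µM positive control, was fitted with four parameters.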

[2] = tested on: HEL
Summary of the method: as §1

[3] = tested on: HL-60
Summary of the method: as §1

[4] = tested on: K-562
Summary of the method: as §1

[5] = tested on: KCL-22
Summary of the method: as §1

[6] = tested on: KG-1
Summary of the method: as §1

[7] = tested on: KU-812
Summary of the method: as §1

[8] = tested on: LAMA-84
Summary of the method: as §1

[9] = tested on: ML-2
Summary of the method: as §1

[10] = tested on: MOLM-13
Summary of the method: as §1

[11] = tested on: MV4-11
Summary of the method: as §1

[12] = tested on: Mono-Mac-6
Summary of the method: as §1

[13] = tested on: NOMO-1
Summary of the method: as §1

[14] = tested on: SHI-1
Summary of the method: as §1

[15] = tested on: THP-1
Summary of the method: as §1

[16] = tested on: HL-60; assay: cell viability (% survival relative to DMSO control); higher = less cytotoxic
Summary of the method: (§2)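 For each screen, HL-60 cells in RPMI 1640 with 10% FBS carried either DMSO or 100 nM of one of three metabolic inhibitors while the full library was applied at five tenfold concentrations, 1–10,000 nM, in duplicate. Plates were 384-well and were kept 72 h at 37 °C, 5% CO2. Viability, measured by CellTiter-Glo, was normalised to wells with DMSO and with 10 μM proteasome inhibitor. Where area under the curve appears, it was fitted by four-parameter log-logistic models in drc and PharmacoGx.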

[17] = tested on: K-562; assay: cell viability (% survival relative to DMSO control, bortezomib = 0%); higher = less cytotoxic
Summary of the method: (§3)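 After 72 h at 37 °C with 5% CO2, cell viability in 384-well plates was measured by CellTiter-Glo luminescence. The plates held compounds pre-printed at 1, 10, 100, 1000 or 10000 nM in duplicate, and cells from 10 AML and 5 CML lines seeded at densities titrated to linear growth. Percent survival is the duplicate mean, normalised to vehicle as 100% and a 10 µM positive control as 0%.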

[18] = tested on: KCL-22; assay: as above
Summary of the method: as §3

[19] = tested on: KG-1; assay: as above
Summary of the method: as §3

[20] = tested on: KU-812; assay: as above
Summary of the method: as §3

[21] = tested on: LAMA-84; assay: as above
Summary of the method: as §3

[22] = tested on: ML-2; assay: as above
Summary of the method: as §3

[23] = tested on: MOLM-13; assay: as above
Summary of the method: as §3

[24] = tested on: MV4-11; assay: as above
Summary of the method: as §3

[25] = tested on: NOMO-1; assay: as above
Summary of the method: as §3

[26] = tested on: SHI-1; assay: as above
Summary of the method: as §3

[27] = tested on: THP-1; assay: as above
Summary of the method: as §3

[28] = tested on: HL-60; assay: area under dose-response curve (viability, 1 nM-10 uM) (fraction (0-1)); higher = more sensitive
Summary of the method: as §2

c1ccc2c(c1)SCc1c-2[nH]c2ccccc12
Settings	IC50 (cell viability) [µM]
[1]	0.646
[2]	3.3
[3]	2
[4]	4.42
[5]	2.18
[6]	0.76
[7]	2.92
[8]	4.96
[9]	1.48
[10]	1.97
[11]	1.06
[12]	2.89
[13]	3.12
[14]	2.6
[15]	4.04

cell viability [%], [16]
Settings	0.001 µM	0.01 µM	0.1 µM	1 µM	10 µM
co-treatment: AZD3965 100 nM	80.9	94.8	107	117	94.6
co-treatment: DMSO vehicle	102.4	101.01	98.13	101	96.9
co-treatment: GSK2194069 100 nM	96.7	100.7	103	96.4	93.2
co-treatment: pictilisib 100 nM	90.3	86.7	104	105	98.9

Settings	area under dose-response curve, co-treatment: AZD3965 100 nM	area under dose-response curve, co-treatment: DMSO vehicle	area under dose-response curve, co-treatment: GSK2194069 100 nM	area under dose-response curve, co-treatment: pictilisib 100 nM	cell viability, 1 nM [%]	cell viability, 10 nM [%]	cell viability, 100 nM [%]	cell viability, 1000 nM [%]	cell viability, 10000 nM [%]
[17]	–	–	–	–	100	100	103	108	12
[18]	–	–	–	–	96.1	93.2	100	80.9	1.24
[19]	–	–	–	–	104	102	125	34.7	-0.763
[20]	–	–	–	–	99.6	110	105	95.3	0.3
[21]	–	–	–	–	106	103	111	109	16.6
[22]	–	–	–	–	106	110	89.8	69	-1.13
[23]	–	–	–	–	99.2	87	100	78.6	23.9
[24]	–	–	–	–	101	101	111	52.8	-0.521
[25]	–	–	–	–	97	107	108	98.2	0.816
[26]	–	–	–	–	101	96	89.1	84.7	3.75
[27]	–	–	–	–	105	100	106	93.4	33.6
[28]	< 0.0301	< 0.0301	< 0.0301	< 0.0301	–	–	–	–	–

C[C@H]1O[C@H](O[C@H]2[C@H](O)[C@@H](O)[C@@H](O[C@H]3[C@H](O)[C@@H](O)C(O)O[C@@H]3CO)O[C@@H]2CO)[C@H](O)[C@@H](O)[C@@H]1N[C@H]1C=C(CO)[C@@H](O)[C@H](O)[C@H]1O (mixture of isomers) [Acarbose]
Settings	IC50 (cell viability) [µM]
[1]	> 10
[2]	> 10
[3]	> 10
[4]	> 10
[5]	> 10
[6]	> 10
[7]	> 10
[8]	> 10
[9]	> 10
[10]	> 10
[11]	> 10
[12]	> 10
[13]	> 10
[14]	> 10
[15]	> 10

cell viability [%], [16]
Settings	0.001 µM	0.01 µM	0.1 µM	1 µM	10 µM
co-treatment: AZD3965 100 nM	112.2	96.77	99	99.3	88.1
co-treatment: DMSO vehicle	100.2	98.3	102	104	97.771
co-treatment: GSK2194069 100 nM	108.6	98.7	97.7	92.59	97.3
co-treatment: pictilisib 100 nM	105	104	101	96.9	102.6

Settings	area under dose-response curve, co-treatment: AZD3965 100 nM	area under dose-response curve, co-treatment: DMSO vehicle	area under dose-response curve, co-treatment: GSK2194069 100 nM	area under dose-response curve, co-treatment: pictilisib 100 nM	cell viability, 1 nM [%]	cell viability, 10 nM [%]	cell viability, 100 nM [%]	cell viability, 1000 nM [%]	cell viability, 10000 nM [%]
[17]	–	–	–	–	111	131	88.1	94.9	98.8
[18]	–	–	–	–	116	117	112	86.5	97.2
[19]	–	–	–	–	99.1	107	93.2	105	95.7
[20]	–	–	–	–	91.8	94.5	107	114	93.9
[21]	–	–	–	–	93.4	84.7	108	92.7	93.4
[22]	–	–	–	–	104	102	103	94.8	95.8
[23]	–	–	–	–	133	86.7	106	95.8	94.9
[24]	–	–	–	–	108	73	111	89.1	94.9
[25]	–	–	–	–	98.1	97.7	103	96.1	88.4
[26]	–	–	–	–	116	120	99.8	104	97.7
[27]	–	–	–	–	87.6	107	96.9	95.1	97.1
[28]	< 0.0301	< 0.0301	< 0.0301	< 0.0301	–	–	–	–	–

CCCC(CCC)C(=O)O [Valproic acid]
Settings	IC50 (cell viability) [µM]
[1]	> 10
[2]	> 10
[3]	> 10
[4]	> 10
[5]	> 10
[6]	> 10
[7]	> 10
[8]	> 10
[9]	> 10
[10]	> 10
[11]	> 10
[12]	> 10
[13]	> 10
[14]	> 10
[15]	> 10

cell viability [%], [16]
Settings	0.001 µM	0.01 µM	0.1 µM	1 µM	10 µM
co-treatment: AZD3965 100 nM	101.96	103	94.7	97.8	106
co-treatment: DMSO vehicle	102	99.9	98.5	96.68	105
co-treatment: GSK2194069 100 nM	95.2	106	98.1	93.9	106
co-treatment: pictilisib 100 nM	98.6	101	95	89.6	101

cell viability [%]
Settings	1 nM	10 nM	100 nM	1000 nM	10000 nM
[17]	107	95.7	98.6	109	112
[18]	108	94.1	96.2	127	95.5
[19]	90.2	98.7	93	90.4	108
[20]	95.6	86.5	92.6	99.5	97.2
[21]	106	91.7	96.2	102	106
[22]	106	95.6	93	99.3	91.5
[23]	105	100	100	76	105
[24]	111	86.6	102	96.6	97.5
[25]	93.8	93.6	94.6	98.5	104
[26]	106	94.8	95.9	92.5	101
[27]	104	93.2	93.7	102	91.2
